Here are results for 4 molecules from PMC3422893 (Journal of medicinal chemistry, 2011).

The subject of assay [1] is SAPK/JNK. The experiment in a line: Western blot of SAPK/JNK pathway activation in H1703 cells. In kind it is cell-based, human.
The test system of assay [2] is ATF3. The experiment in a line: Western blot of ATF3 protein in H1703 cells. In kind it is cell-based, human. For orientation: A western blot detects proteins with antibodies after separation by electrophoresis.
For assay [3], the system named is H1703 xenograft tumors. Kind of assay: H&E staining and immunohistochemistry of xenograft tumors. In kind it is in vivo, athymic NCr-nu/nu mice.
Assay [4] relates to H1703 cells. Kind of assay: H1703 non-small cell lung cancer xenograft model. In kind it is in vivo, athymic NCr-nu/nu mice. To be noted: three times a week for 3 weeks.
Assay [5] deals with PARP. Kind of assay: Western blot of PARP cleavage. To be noted: H1703 cells, 1 µM, 1, 4, or 6 h. In kind it is cell-based, human.

Turning to `O=C1c2ccccc2-c2n[nH]c3cccc1c23` [1,9-pyrazoloanthrone, reference compound], the “effect on 1-induced activation of ATF2 and c-jun” value in assay [1] (pretreatment 50 µM, 30 min) is “inhibited”. Besides, the “effect on 1-induced ATF3 upregulation” value in assay [2] (pretreatment 50 µM, 30 min) is reported as “partially blocked”.
With `CCOC(=O)N1CCN(/[N+]([O-])=N/Oc2ccc([N+](=O)[O-])cc2[N+](=O)[O-])CC1` [Compound 1, O^2-(2,4-dinitrophenyl) 1-[(4-ethoxycarbonyl)piperazin-1-yl]diazen-1-ium-1,2-diolate], in assay [3] (6 µmol/kg i.v.), the “ATF3 protein level in tumors, immunohistochemistry” value is given as “upregulation in ATF3 protein level”; the “P-SAPK/JNK in tumors, immunohistochemistry” value is on record as “phosphorylation of SAPK/JNK”; the “tissue death in tumors, H&E staining” value is on record as “significant tissue death”. In addition, the “SAPK/JNK activation (phosphorylation)” value in assay [1] is “caused SAPK/JNK activation”. Further, the “time to detection of SAPK/JNK phosphorylation” value in assay [1] (1 µM) was not above 30 min. For the same molecule, the “growth of H1703 cells in vivo” value in assay [4] (6 µmol/kg i.v.) is “significantly reduced growth”. Besides, in assay [5], the “cleavage of PARP” value is reported as “resulted in cleavage of PARP”. Besides, in assay [2] (1 µM), the ATF3 protein expression result was “induced”.
Turning to `O=S(=O)(O)c1cc(O)c(O)c(S(=O)(=O)O)c1` [Tiron, reference compound], the “effect on SAPK/JNK phosphorylation resulting from 1 or 2” value in assay [1] (pretreatment 10 mM for 1 h, then 30-min incubation with 1 or 2) is “attenuated SAPK/JNK phosphorylation”.
`CCOC(=O)N1CCN(/[N+]([O-])=N/Oc2cc(C)c([N+](=O)[O-])cc2[N+](=O)[O-])CC1` [Compound 6, O^2-(2,4-Dinitro-5-methylphenyl) 1-[(4-Ethoxycarbonyl)piperazin-1-yl]diazen-1-ium-1,2-diolate]: in assay [3] (8 µmol/kg i.v.), the “ATF3 protein level in tumors, immunohistochemistry” value is “comparable to that of the control” and the “P-SAPK/JNK in tumors, immunohistochemistry” value is “did not stain for P-SAPK/JNK”. The “growth of H1703 cells in vivo” value in assay [4] (8 µmol/kg i.v.) is “did not result in reduction in H1703 tumor growth in vivo”.
